Columns and labels:
Type in all cases: in vivo
Abutilon theophrasti = assay: Post-emergence test; conditions: 2-4 weeks after treatment
Experimental: (§1) To evaluate their herbicidal activity, compounds according to the invention are tested using a representative range of plants: ABUTH Abutilon theophrasti [table] […] These acetone solutions are diluted with water and the resulting formulations applied at dosage levels equivalent of about 0.1 to 0. 4 kg per hectare of test compound per pot. After spraying the plants are placed on greenhouse benches and are cared for in the usual manner, commensurate with conventional greenhouse practices. From 2 to 4 weeks after treatment, the seedling plants are examined and rated according to the rating system provided above.

weeds = assay: Overall weed control in pre- and post-emergence application; conditions: dose of 0.1 kg/ha
Experimental: (§2) The pre-emergence tests involve spraying a liquid formulation of the compound onto the soil in which the seeds of the plant species mentioned above has recently been sown. The soil used in the tests is a prepared horticultural loam. The formulations used in the tests are prepared from solutions of the test compounds in acetone containing 0.4% by weight of an alkylphenol/ethylene oxide condensate available under the trade mark TRITON X-155. These acetone solutions are diluted with water and the resulting formulations applied at dosage levels corresponding to 0.025 kg, 0.100 kg or 0.400 kg of active material per hectare in a volume equivalent to 900 litres per hectare. In these tests untreated sown soil are used as controls. […] These acetone solutions are diluted with water and the resulting formulations applied at dosage levels equivalent of about 0.1 to 0. 4 kg per hectare of test compound per pot. After spraying the plants are placed on greenhouse benches and are cared for in the usual manner, commensurate with conventional greenhouse practices. From 2 to 4 weeks after treatment, the seedling plants are examined and rated according to the rating system provided above.

Galium aparine = assay: Pre-emergence test; conditions: 3 weeks after treatment
Experimental: (§3) To evaluate their herbicidal activity, compounds according to the invention are tested using a representative range of plants: GALAP Galium aparine The pre-emergence tests involve spraying a liquid formulation of the compound onto the soil in which the seeds of the plant species mentioned above has recently been sown. The soil used in the tests is a prepared horticultural loam. The formulations used in the tests are prepared from solutions of the test compounds in acetone containing 0.4% by weight of an alkylphenol/ethylene oxide condensate available under the trade mark TRITON X-155. These acetone solutions are diluted with water and the resulting formulations applied at dosage levels corresponding to 0.025 kg, 0.100 kg or 0.400 kg of active material per hectare in a volume equivalent to 900 litres per hectare. In these tests untreated sown soil are used as controls. From 2 to 4 weeks after treatment, the tests are terminated and each pot is examined and rated according to the rating system set forth below: [table]

Alopecurus myosuroides = assay: Pre-emergence test; conditions: 3 weeks after treatment
Experimental: as §3, with “ALOMY Alopecurus myosuroides” for “GALAP Galium aparine”

Echinochloa crus-galli = assay: Pre-emergence test; conditions: 3 weeks after treatment
Experimental: as §3, with “ECHCG Echinochloa crus-galli” for “GALAP Galium aparine”

Zea mays = assay: Post-emergence test; conditions: 2-4 weeks after treatment
Experimental: as §1, with “ZEAMX Zea mays” for “ABUTH Abutilon theophrasti”

soybeans, wheat = assay: Crop selectivity in pre- and post-emergence application; conditions: dose of 0.1 kg/ha
Experimental: as §2

Setaria viridis = assay: Post-emergence test; conditions: 2-4 weeks after treatment
Experimental: as §1, with “SETVI Setaria viridis” for “ABUTH Abutilon theophrasti”

Glycine max = assay: Pre-emergence test; conditions: 3 weeks after treatment
Experimental: To evaluate their herbicidal activity, compounds according to the invention are tested using a representative range of plants:
The pre-emergence tests involve spraying a liquid formulation of the compound onto the soil in which the seeds of the plant species mentioned above has recently been sown.
as §3, with “The” for “To evaluate their herbicidal activity, compounds according to the invention are tested using a representative range of plants: GALAP Galium aparine The pre-emergence tests involve spraying a liquid formulation of the compound onto the soil in which the seeds of the plant species mentioned above has recently been sown. The”, “[table]” left out

SMILES	ABUTH herbicidal rating (Abutilon theophrasti; 0.1 kg/ha)	ABUTH herbicidal rating (Abutilon theophrasti; 0.4 kg/ha)	overall levels of weed control (weeds)	GALAP herbicidal rating (Galium aparine; 0.025 kg/ha)	GALAP herbicidal rating (Galium aparine; 0.100 kg/ha)	GALAP herbicidal rating (Galium aparine; 0.400 kg/ha)	ALOMY herbicidal rating (Alopecurus myosuroides; 0.025 kg/ha)	ALOMY herbicidal rating (Alopecurus myosuroides; 0.100 kg/ha)	ALOMY herbicidal rating (Alopecurus myosuroides; 0.400 kg/ha)	ECHCG herbicidal rating (Echinochloa crus-galli; 0.025 kg/ha)	ECHCG herbicidal rating (Echinochloa crus-galli; 0.100 kg/ha)	ECHCG herbicidal rating (Echinochloa crus-galli; 0.400 kg/ha)	ZEAMX herbicidal rating (Zea mays; 0.1 kg/ha)	ZEAMX herbicidal rating (Zea mays; 0.4 kg/ha)	tolerance in soybeans and wheat (soybeans, wheat)	SETVI herbicidal rating (Setaria viridis; 0.1 kg/ha)	SETVI herbicidal rating (Setaria viridis; 0.4 kg/ha)	GLXMA herbicidal rating (Glycine max; 0.025 kg/ha)	GLXMA herbicidal rating (Glycine max; 0.100 kg/ha)	GLXMA herbicidal rating (Glycine max; 0.400 kg/ha)
Cn1nc(C(F)(F)F)cc1Oc1cc(C#N)cc(-c2cc(C(F)(F)F)nn2C)n1 [Example 3, 4-Cyano-2-(1-methyl-3-trifluoromethylpyrazol-5-yloxy)-6-(1-methyl-3-trifluoromethylpyrazol-5-yl)pyridine]	4 (4 - Injury)	5 (5 - Definite injury)	good overall levels of weed control	1 (1 - Trace effect)	4 (4 - Injury)	8 (8 - Approaching complete kill)	2 (2 - Slight effect)	3 (3 - Moderate effect)	5 (5 - Definite injury)	2 (2 - Slight effect)	4 (4 - Injury)	4 (4 - Injury)	2 (2 - Slight effect)	4 (4 - Injury)	well tolerated	5 (5 - Definite injury)	7 (7 - Good herbicidal effect)	0 (0 - No effect)	1 (1 - Trace effect)	3 (3 - Moderate effect)
Cc1cnc(-c2cc(C(F)(F)F)nn2C)nc1Oc1cc(C(F)(F)F)nn1C [Example 4, 2-(1-Methyl-3-trifluoromethylpyrazol-5-yl)-6-(1-methyl-3-trifluoromethylpyrazol-5-yloxy)-5-methylpyrimidine]	6 (6 - Herbicidal effect)	7 (7 - Good herbicidal effect)	good overall levels of weed control	1 (1 - Trace effect)		8 (8 - Approaching complete kill)	2 (2 - Slight effect)	6 (6 - Herbicidal effect)	8 (8 - Approaching complete kill)	4 (4 - Injury)	7 (7 - Good herbicidal effect)	8 (8 - Approaching complete kill)	2 (2 - Slight effect)	4 (4 - Injury)	well tolerated	9 (9 - Complete kill)	9 (9 - Complete kill)	2 (2 - Slight effect)	3 (3 - Moderate effect)	4 (4 - Injury)
Cc1cc(Oc2cccc(C(F)(F)F)c2)nc(-c2cc(C(F)(F)F)nn2C)c1 [Example 63]	4 (4 - Injury)	4 (4 - Injury)		0 (0 - No effect)	0 (0 - No effect)	1 (1 - Trace effect)	0 (0 - No effect)	1 (1 - Trace effect)	5 (5 - Definite injury)	0 (0 - No effect)	0 (0 - No effect)	4 (4 - Injury)	2 (2 - Slight effect)	3 (3 - Moderate effect)		3 (3 - Moderate effect)	6 (6 - Herbicidal effect)	0 (0 - No effect)	0 (0 - No effect)	0 (0 - No effect)
